Where a name gives a salt, the structure may show the parent alone. Read-outs that look alike come from different tables or passages of the source.
Legend:
[1] = system: wild-type KRAS HeLa cells; experiment: HeLa cell viability, wild-type KRAS transgene, Cell Titre Blue; type: cell-based; conditions: 72 hours, listed as A-4, read-out: WT GI50
Description: (§1) Atropisomers A-1, A-2, A-3 and A-4 were tested on HeLa cells engineered to inducibly express wild-type or oncogenic KRasG12V transgenes using the FLP-in/T-Rex system (Invitrogen). Cells were plated, and then treated with or without Doxycycline to induce transgene expression, and then treated with serially-diluted PBD inhibitors. After 72 hours of incubation, cell viability was assessed using the Cell Titre Blue reagent (Promega) and a BMG Pherastar plate reader. The effect of PBD inhibition on cell viability with either wild-type or oncogenic G12V KRAS was assessed using GraphPad Prism.
(§2) From the results obtained by following the above protocol, the GI50 values against the wild-type and KRAS G12V HeLa cell line of each of the atropisomers were determined as shown in Table 12.

[2] = system: KRAS G12V HeLa cell line; experiment: HeLa cell viability, oncogenic KRasG12V transgene, Cell Titre Blue; type: cell-based; conditions: KRAS G12V HeLa cells, 72 hours; listed as A-4
Description: as §1, §2

[3] = system: U87MG cells; experiment: U87MG human glioblastoma cell viability, SRB assay, 72 hours; type: cell-based
Description: The following protocol was used to measure the effects of compounds of the invention on U87MG cell viability.
U87MG cells were grown in their recommended growth media/supplements (ATCC). Cells were seeded at a concentration of 5000 cells per well into 96 well plates overnight at 37° C., 5% CO2. Cells were treated with relevant concentrations of test compound for 72 hours. After 72 hours incubation, viability was established using sulforhodamine B (SRB) colorimetric assay. Percentage viability was calculated against the mean of the DMSO treated control samples, and IC50 values for inhibition of cell growth were calculated using GraphPad Prism software by nonlinear regression (4 parameter logistic equation).

[4] = Gravimetric vapour sorption (GVS); type: physicochemical
Description: Sorption isotherms were obtained using a Hiden Isochema moisture sorption analyser (model IGAsorp), controlled by IGAsorp Systems Software V6.50.48. The sample was maintained at a constant temperature (25° C.) by the instrument controls. The humidity was controlled by mixing streams of dry and wet nitrogen, with a total flow of 250 ml·min-1. The instrument was verified for relative humidity content by measuring three calibrated Rotronic salt solutions (10-50-88%). The weight change of the sample was monitored as a function of humidity by a microbalance (accuracy +/−0.005 mg). A defined amount of sample was placed in a tared mesh stainless steel basket under ambient conditions. A full experimental cycle typically consisted of three scans (sorption, desorption and sorption) at a constant temperature (25° C.) and 10% RH intervals over a 0-90% range (60 minutes for each humidity level).

[5] = Gravimetric solubility in water; type: physicochemical
Description: The solubility in water of the salts was measured using a gravimetric solubility protocol.
(§3) 1 ml of water was charged into crystallisation tubes. The solid was weighed into a tared glass vial, added in portions to the solutions and the vial weighed after each addition until a hazy solution was observed. The amount in mg was then calculated to give the solubility in mg/ml.
as §3, with “The solubility in water of the salts was measured using a gravimetric solubility protocol. Thus, 1” for “1”, “mg/mL.” for “mg/ml.”

[6] = Chiral stability (interconversion) of isolated atropisomers on heating, chiral HPLC; type: physicochemical; conditions: for % ee of sample @ 40° C. / % ee sample @ 80° C.: EtOH solution, listed as A-1
Description: Stability studies were carried out on the isolated atropisomers, atropisomers A-1 and A-2. To assess the interconversion of atropisomer A-1 and atropisomer A-2 chiral stability was monitored at 40° C. and 80° C. […] 1. 2×1 mg of pure atropisomer was dissolved in 1 mL of EtOH in a sealed-dram vial. 2. One set of vials was heated at 40° C. and another set at 80° C. 3. […] 4. Analysis was carried out at the following timepoints: 0 h, 24 h, 48 h, 72 h, 96 h and 240 h for the samples kept at 40° C. and 24 h, 96 h and 240 h for the samples kept at 80° C. using Chiral HPLC method 5

[7] = system: panel of 48 cancer-derived cell lines; experiment: Proliferation assay on diverse cancer cell line panel, CellTiter-Glo, 72 hours; type: cell-based; conditions: 72 hours
Description: Screening against diverse cancer cell lines was performed to identify tumour types displaying sensitivity to atropisomers A-1 and A-2. A panel of 48 cancer-derived cell lines was screened in a high-throughput proliferation assay using dilutions of atropisomers A-1/A-2. Cell lines that were screened included those representing cancer of the pancreas, large intestine/colorectum, lung, brain and nerves, and lymphoma and leukaemia cell lines. Cell lines were treated with serial half-log dilutions of compound and assayed 72 hours later for proliferation using CellTiter-Glo Assay (Promega). IC50 values were calculated by fitting the dose-response data using a nonlinear regression model.

[8] = system: U87MG cells; experiment: Mitotic phenotype study in U87MG cells; type: cell-based, human; conditions: 0.03 μM, listed as A-1
Description: Distinct mitotic phenotypes are induced following inhibition of PLK1 and PLK4 in cells. […] Centriole assembly is controlled by PLK4, with inhibitors inducing a multipolar spindle phenotype due to centrosome defects which results in abnormal cyokinesis (Wong et al., 2015. Science 348(6239); 1155-1160). Cells were plated at 10 000/well in 96-well plates and incubated overnight. The following day atropisomer A-2 stocks in DMSO were diluted in medium then added to cells with a maximum final DMSO concentration on cells of 0.2%. Cells were incubated with the compound for 24 hours then fixed in 3.7% formaldehyde. Cells were permeabilised with 0.1% Triton X-100 then incubated with anti-phospho-histone H3 (Ser10) antibody (Abcam). The cells were washed with PBS then incubated with AlexaFluor 488 labelled goat anti-rabbit IgG (Invitrogen) in the presence of 4 ug/mL Hoechst 33342 (Invitrogen). Cells were washed in PBS then imaged on an Arrayscan VTi HCS instrument using the Target Activation V4 Bioapplication. A user-defined threshold was applied to identify mitotic cells based on the intensity of phospho-histone H3 staining. In a separate study, following the above protocol and using single compound concentrations of 0.03 μM for each of atropisomer A-1 and atropisomer A-2, the frequency of observed mitotic phenotypes in U87MG cells was manually assessed and classified into the following phenotypes: non-congressed chromosomes, multipolar spindles/abnormal cytokinesis, monopolar spindles, normal prometaphase, normal metaphase for each of A-1 and A-2.

## CN(C)CCNC(=O)c1ccc(-c2ccc(-c3ccc(Cl)cc3)n2-c2ccccc2C(F)(F)F)nc1 (single isomer, unassigned) [Atropisomer A-4, 6-[5-(4-chlorophenyl)-1-[2-(trifluoromethyl)phenyl]pyrrol-2-yl]-N-[2-(dimethylamino)ethyl]pyridine-3-carboxamide]
[1]
  GI50: 0.254 µM
[2]
  GI50: 0.153 µM
[3]; listed as A-4
  IC50: 3.94 µM

## CN(C)CCNC(=O)c1ccc(-c2ccc(-c3ccc(Cl)cc3)n2-c2ccccc2C(F)(F)F)cc1 [(+)-L-tartaric acid salt, (R)-2,4-[5-(4-chlorophenyl)-1-[2-(trifluoromethyl)-phenyl]pyrrol-2-yl]-N-[2-(dimethylamino)-ethyl]benzamide (+)-L-tartaric acid salt]
[4]; at 90% RH
  surface moisture uptake: < 1%
[5]
  water solubility compared with free base: improved water solubility over the free base

## CN(C)CCNC(=O)c1ccc(-c2ccc(-c3ccc(Cl)cc3)n2-c2ccccc2C(F)(F)F)cc1.O=C(O)C(O)C(O)C(=O)O [Tartrate Pattern B, (R)-4-[5-(4-chlorophenyl)-1-[2-(trifluoromethyl)phenyl]pyrrol-2-yl]-N-[2 (dimethylamino)ethyl]benzamide tartrate]
[4]; 0-90% RH cycling, XRPD post GVS
  solid form stability under GVS: stable solid, only absorbing surface moisture with no change in form
[4]; GVS, 25° C.
  moisture content before the first desorption: ca. 0.3%
[4]; GVS, 25° C., 80-90% RH
  moisture taken up between 80 and 90% RH: ca. 0.8%

## CN(C)CCNC(=O)c1ccc(-c2ccc(-c3ccc(Cl)cc3)n2-c2ccccc2C(F)(F)F)cc1 (single isomer, unassigned) [Atropisomer A-1, 4-[5-(4-chlorophenyl)-1-[2-(trifluoromethyl)phenyl]pyrrol-2-yl]-N-[2-(dimethylamino)ethyl]benzamide]
[6]; 0 h
  % ee of sample @ 40° C.: 100 % ee
  % ee sample @ 80° C.: 100 % ee
[6]; 24 h
  % ee of sample @ 40° C.: 100 % ee
  % ee sample @ 80° C.: 100 % ee
[6]; 48 h
  % ee of sample @ 40° C.: 100 % ee
[6]; 72 h
  % ee of sample @ 40° C.: 100 % ee
[6]; 96 h
  % ee of sample @ 40° C.: 100 % ee
  % ee sample @ 80° C.: 100 % ee
[6]; 10 days
  % ee of sample @ 40° C.: 100 % ee
  % ee sample @ 80° C.: 100 % ee
[6]; from stability of isolated atropisomers
  atropisomer classification (LaPlante): Class 3
[6]; heating for 10 days at 40° C. and 80° C.
  interconversion / racemization of atropisomers on heating: no interconversion was observed
[7]; A549, Lung
  IC50: 9.19 µM
[7]; A-172, Brain & Nerves
  IC50: 7.07 µM
[7]; AsPC-1, Pancreas
  IC50: > 10 µM
[7]; BxPC-3, Pancreas
  IC50: 6.97 µM
[7]; COLO 205, Large intestine/Colorectum
  IC50: 6.75 µM
[7]; Capan-1, Pancreas
  IC50: > 10 µM
[7]; D283 Med, Brain & Nerves
  IC50: 9.26 µM
[7]; DOHH-2, Blood/Lymphoma
  IC50: 5.64 µM
[7]; Daoy, Brain & Nerves
  IC50: 7 µM
[7]; Daudi, Blood/Lymphoma
  IC50: 7.17 µM
[7]; GRANTA-519, Blood/Lymphoma
  IC50: 7.42 µM
[7]; HBL-1, Blood/Lymphoma
  IC50: 9.94 µM
[7]; HCC44, Lung
  IC50: 8.26 µM
[7]; HOT 116, Large intestine/Colorectum, listed as A-1
  IC50: 7.36 µM
[7]; HT-29, Large intestine/Colorectum
  IC50: 4.53 µM
[7]; JVM-2, Blood/Lymphoma
  IC50: 4.71 µM
[7]; JeKo-1, Blood/Lymphoma
  IC50: 7.94 µM
[7]; KG-1, Blood/Leukaemia
  IC50: > 10 µM
[7]; Kasumi-1, Blood/Leukaemia
  IC50: 5.13 µM
[7]; LN-229, Brain & Nerves
  IC50: 7.37 µM
[7]; LoVo, Large intestine/Colorectum
  IC50: 8.36 µM
[7]; MIA PaCa-2, Pancreas
  IC50: 9.17 µM
[7]; ML-2, Blood/Leukaemia, listed as A-1
  IC50: 4.01 µM
[7]; MV-4-11, Blood/Leukaemia
  IC50: 6.49 µM
[7]; NAMALWA, Blood/Lymphoma
  IC50: 7.05 µM
[7]; NCI-H460, Lung
  IC50: 8.13 µM
[7]; NCI-H1299, Lung
  IC50: 8.25 µM
[7]; NCI-H1373, Lung
  IC50: > 10 µM
[7]; NCI-H1792, Lung
  IC50: 7.73 µM
[7]; NCI-H1975, Lung
  IC50: 5.14 µM
[7]; OCI-LY-19, Blood/Lymphoma
  IC50: 6.67 µM
[7]; PANC-1, Pancreas
  IC50: > 10 µM
[7]; Panc 10.05, Pancreas
  IC50: 9 µM
[7]; RKO, Large intestine/Colorectum
  IC50: 6.17 µM
[7]; Raji, Blood/Lymphoma
  IC50: 3.91 µM
[7]; Ramos, Blood/Lymphoma
  IC50: 3.99 µM
[7]; SK-MES-1, Lung
  IC50: 7.78 µM
[7]; SU-DHL-2, Blood/Lymphoma
  IC50: 7.01 µM
[7]; SU-DHL-6, Blood/Lymphoma
  IC50: 3.98 µM
[7]; SVV620, Large intestine/Colorectum, listed as A-1
  IC50: 8.35 µM
[7]; SW480, Large intestine/Colorectum
  IC50: 7.55 µM
[7]; SW1088, Brain & Nerves
  IC50: 8.49 µM
[7]; T98G, Brain & Nerves
  IC50: 5.26 µM
[7]; Toledo, Blood/Lymphoma
  IC50: > 10 µM
[7]; U118 MG, Brain & Nerves
  IC50: 7.6 µM
[7]; U-2932, Blood/Lymphoma
  IC50: 4.47 µM
[7]; WSU-DLCL2, Blood/Lymphoma
  IC50: 6.74 µM
[7]; Z-138, Blood/Lymphoma
  IC50: 7.04 µM
[8]
  cells with abnormal cytokinesis: 24%
  cells with non-congressed chromosomes: No evidence
  cells with normal mitotic phenotype: 76%
[3]
  IC50: 4.6 µM

From patent US20220348565A1, “PHARMACEUTICAL COMPOUNDS” (SENTINEL ONCOLOGY LIMITED, priority 2019, published 2022)
